# Earlier results in patent publication US6187938A, “ω-amino acid derivatives, processes of their preparation and their use” (Bochemie, s.r.o., priority 1997, dated 2001).
# System: skin
# Conditions: in presence of petrolatum; Stoughton, McClure 1983
smiles,measurement,value
"CCCCCCCCCCCCN1CCCCCC1=O [laurocapram, 1-dodecylazacycloheptan-2-one]","inhibition of permeation enhancing effect by paraffinic auxiliary substances (e.g., petrolatum)",completely inhibit
